The values that follow come from patent US8853392B2, “Benzamide mGluR5 positive allosteric modulators and methods of making and using same” (Vanderbilt University, priority 2007, dated 2014).

“And” between values parts separate entries of the source, which are not always exact repeats. Equal entries are not always repeated. “Also recorded” adds a separate entry of the source. Where two headings read alike, the source gives them in different places.

Assay [1] has as its system Novel Object Recognition (NOR). The assay is described as follows: Novel Object Recognition (NOR). It counts as in vivo. Particulars: FIG. 11. From the text: (§1) mGluR5 potentiation has also been linked to improvement of cognition (Kinney, G. G.; O'Brien, Lemaire, W.; Burno, M.' Bickel, D. J.; Clements, M. K.; Wisnoski, D. D.; Lindsley, C. W.; Tiller, P. R.; Smith, S.; Jacobson, M. A.; Sur, C.; Duggan, M. E.; Pettibone, D. J.; Williams, Jr., D. W. ‘A novel selective allosteric modulator of metabotropic glutamate receptor subtype 5 (mGluR5) has an antipsychotic profile in rat behavioral models’ J. Pharmacol. Exp. Therapeut. 2005, 313(1), 199; Lindsley, C. W.; Wisnoski, D. D.; Leister, W. H.; O'Brien, J. A.; Lemiare, W.; Williams, Jr., D. L.; Burno, M.; Sur, C.; Kinney, G. G.; Pettibone, D. J.; iller, P. R.; Smith, S.; Duggan, M. E.; Hartman, G. D.; Conn, P. J.; Huff, J. R. ‘Discovery of positive allosteric modulators for the metabotropic glutamate receptor subtype from a series of N-(1,3-Diphenyl-1H-pyrazol-5-yl)benzamides that potentiate receptor function in vivo’ J. Med. Chem. 2004, 47, 5825; Epping-Jordan M. P., Nayak, S., Derouet, F., Dominguez, H., Bessis A. S., Le Poul E., Ludwig B. L. Mutel V., Poli S. M. and Rocher J. P. In Vivo Characterization of mGluR5 Positive Allosteric Modulators as Novel Treatments for Schizophrenia and Cognitive Dysfunction Neuropharmacology 2005, 49, 243.). […]

Assay [2] concerns prepulse inhibition (PPI). The assay is described as follows: reversal of amphetamine-induced prepulse inhibition (PPI) of startle. Format: in vivo, rats. Particulars: FIG. 15, 16; four prepulse intensities above background. From the text:
Schizophrenic patients show decreased measures of sensorimotor gating, such as prepulse inhibition (PPI) of startle, and preclinical models of PPI in rats are routinely used to predict antipsychotic efficacy. In fact, PPI can be measured in humans and rats employing identical stimulus parameters yielding similar responses (Braff, D. L.; Geyer, M. A.; Swerdlow, N. R. ‘Human studies of prepulse inhibition of startle: normal subjects, patient groups, and pharmacological studies.’ Psychopharmacology 2001, 156(2-3), 234-258; Braff, D. L.; Geyer, M. A. ‘Sensorimotor gating and schizophrenia. Human and animal model studies.’ Archives of general psychiatry 1990, 47(2), 181-8; Braff, D. L.; Geyer, M. A.; Swerdlow, N. R. ‘Human studies of prepulse inhibition of startle: normal subjects, patient groups, and pharmacological studies.’ Psychopharmacology 2001, 156(2-3), 234-258; Weiss, I. C.; Feldon, J. ‘Environmental animal models for sensor motor gating deficiencies in schizophrenia: a review.’ Psychopharmacology 2001, 156(2-3), 305-326; Thomsen, M.; Woertwein, G.; Fink-Jensen, A.; Woldbye, D. P. D.; Wess, J.; Caine, S. B. ‘Decreased prepulse inhibition and increased sensitivity to muscarinic, but not dopaminergic drugs in M5 muscarinic acetylcholine receptor knockout mice.’ Psychopharmacology 2007, 192(1), 97-110.). […]

The test system of assay [3] is hippocampal long term potentiation (LTP). The experiment in a line: hippocampal long term potentiation (LTP). It counts as cell-based. The conditions noted are these: after applying a stimulus to the synapse, FIG. 17.
Text: as §1

The test system of assay [4] is amphetamine-induced hyperlocomotion. The experiment in a line: reversal of amphetamine-induced hyperlocomotion. It counts as in vivo, male Sprague-Dawley rats. The conditions noted are these: rats, i.p., FIG. 8-10, 13, 14. The method, then:
For example, compounds of the present invention reverse amphetamine-induced hyperlocomotion in male Sprague-Dawley rats at doses ranging from 1 to 100 mg/kg i.p. Data for three example compounds follow:
Locomotor activity can be assessed as mean distance traveled (cm) in standard 16×16 photocell testing chambers measuring 43.2 cm (L)×43.2 cm (W)×30.5 cm (H) (Med Associates, St. Albans, Vt.). Animals can be habituated to individual activity chambers for at least 60 min prior to drug administration. Following administration of appropriate drugs or vehicle, activity can be recorded for a 3 hr time period. Data can be expressed as the mean (±SEM) distance traveled recorded in 10 min intervals over the test period. The data can be analyzed using repeated measures analysis of variance (ANOVA) followed by post-hoc testing using Tukey's HSD test, when appropriate. A difference can be considered significant when p≦0.05.

Assay [5] concerns the target T1, rat mGluR5 (Rattus norvegicus, UniProt P31424).
T1 construct: expressed in transfected cells; host or cells: human embryonic kidney (HEK) cells
The experiment in a line: potentiation of mGluR5 response to glutamate, Ca2+ fluorescence (FDSS) in HEK cells transfected with rat mGluR5. It counts as cell-based. An outline of the steps:
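HEK cells expressing rat mGluR5, loaded with 2 μM fluo-4 AM; buffer HBSS, 20 mM HEPES, 2.5 mM probenecid, pH 7.4, 0.1% DMSO final. Compound added 5 min before glutamate, typically at EC20, with Ca2+ fluorescence read over 1 min and normalized to maximal agonist response. Potentiator EC50 from curve fitting; agonist curve shifts measured at fixed compound concentrations.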

Where [6] appears, read: Table 1, EC50 for potentiating the mGluR5 receptor; unit inferred; read-out: EC50.
[7] abbreviates: in vitro potency; read-out: In vitro.

T1 sequence (P31424 21-1203): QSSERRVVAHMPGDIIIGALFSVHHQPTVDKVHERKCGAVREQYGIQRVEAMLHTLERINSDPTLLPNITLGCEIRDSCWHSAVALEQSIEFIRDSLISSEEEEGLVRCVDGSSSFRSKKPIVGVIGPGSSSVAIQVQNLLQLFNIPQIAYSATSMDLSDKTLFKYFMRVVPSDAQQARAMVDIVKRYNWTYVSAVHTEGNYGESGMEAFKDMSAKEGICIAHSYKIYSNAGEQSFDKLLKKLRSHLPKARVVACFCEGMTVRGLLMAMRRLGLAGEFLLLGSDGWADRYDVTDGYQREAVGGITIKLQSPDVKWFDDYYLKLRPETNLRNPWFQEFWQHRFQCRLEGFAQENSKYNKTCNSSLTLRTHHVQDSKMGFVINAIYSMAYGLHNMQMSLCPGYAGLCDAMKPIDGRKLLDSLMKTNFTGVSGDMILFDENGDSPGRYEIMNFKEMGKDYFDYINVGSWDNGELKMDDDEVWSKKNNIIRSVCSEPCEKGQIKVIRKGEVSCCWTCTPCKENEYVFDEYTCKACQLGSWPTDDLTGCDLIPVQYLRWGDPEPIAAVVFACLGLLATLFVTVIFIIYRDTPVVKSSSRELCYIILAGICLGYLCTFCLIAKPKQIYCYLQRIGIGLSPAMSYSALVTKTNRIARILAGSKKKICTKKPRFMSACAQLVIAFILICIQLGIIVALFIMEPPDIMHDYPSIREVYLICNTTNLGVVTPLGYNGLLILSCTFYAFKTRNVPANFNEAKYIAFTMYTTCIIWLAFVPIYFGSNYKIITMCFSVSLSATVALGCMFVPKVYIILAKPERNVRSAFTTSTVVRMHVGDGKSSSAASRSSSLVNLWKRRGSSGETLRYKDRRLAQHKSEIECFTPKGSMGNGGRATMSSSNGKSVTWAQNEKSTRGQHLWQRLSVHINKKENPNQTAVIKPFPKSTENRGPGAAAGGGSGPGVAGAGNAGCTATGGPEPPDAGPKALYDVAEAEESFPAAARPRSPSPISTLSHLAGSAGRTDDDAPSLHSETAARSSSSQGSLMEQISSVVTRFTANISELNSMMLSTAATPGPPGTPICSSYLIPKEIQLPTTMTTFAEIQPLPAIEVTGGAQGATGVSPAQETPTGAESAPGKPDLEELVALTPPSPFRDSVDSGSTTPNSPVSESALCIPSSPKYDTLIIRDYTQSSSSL

With `O=C(c1ccc(F)cc1)N1CCC[C@H](c2nc(-c3ccc(F)cc3)no2)C1` [ADX47273], the “improvement in Novel Object Recognition (NOR)” value in assay [1] was “robust and significant improvement in NOR; also recorded: cognitive improvement”. In addition, the “reversal of amphetamine-induced prepulse inhibition (PPI)” value in assay [2] was “affords similar results; also recorded: reversal of amphetamine-induced prepulse inhibition (PPI)”. Moreover, in assay [3], the “increase in strength of synaptic connections (hippocampal LTP)” value was “induced a robust increase in synaptic connections”. The “reversal of amphetamine-induced hyperlocomotion” value in assay [4] is “afforded similar results; also recorded: reversal of amphetamine-induced hyperlocomotion”.

Consider `O=C(c1ccc(C#Cc2ccccc2)cc1)N1CCC(O)CC1` [Compound VU13, (4-hydroxypiperidin-1-yl)(4-(phenylethynyl)phenyl)methanone], for which the Emax in assay [5] (HEK293; read-out: % Glu Max) was determined as 50%. The figures for the EC50 in assay [5] (setting [6]) and in assay [5] (setting [7]) were 14.3 nM and 13.6 nM, respectively. Moreover, in assay [4], the “reversal of amphetamine-induced hyperlocomotion” value is given as “efficacy in reversing amphetamine-induced hyperlocomotion; also recorded: in vivo efficacy”.

Turning to `O=C(c1ccc(C#Cc2ccccc2)cc1)N1CCC(CO)CC1` [Compound VU14/C104B2, (4-(hydroxymethyl)piperidin-1-yl)(4-(phenylethynyl)phenyl)methanone], the Emax in assay [5] (HEK293; read-out: % Glu Max) worked out at 41%. Moreover, the EC50 was 32.7 nM and 43.4 nM in assay [5] (setting [6]); 29.6 nM in assay [5] (setting [7]). Besides, the “reversal of amphetamine-induced hyperlocomotion” value in assay [4] is reported as “efficacy in reversing amphetamine-induced hyperlocomotion; also recorded: in vivo efficacy”.

For `CCCC1(O)CCN(C(=O)c2ccc(C#Cc3ccccc3)cc2)CC1` [Compound VU60/C109B2, (4-hydroxy-4-propylpiperidin-1-yl)(4-(phenylethynyl)phenyl)methanone], the Emax in assay [5] (HEK293, read-out: % Glu Max) turned out to be 90%; in assay [5] (HEK293, read-out: % Glu Max, maximum extent of potentiation, normalized to maximal response to glutamate; SAR tables), 90.1%. The results for the EC50 in assay [5] (setting [6]) and in assay [5] (setting [7]) were 1610 nM and 1250 nM, respectively. Moreover, the figures for the “reversal of amphetamine-induced hyperlocomotion” value in assay [4] and in assay [4] (listed as VU60) were “efficacy in reversing amphetamine-induced hyperlocomotion” and “in vivo efficacy”, respectively.

On to `O=C(Nc1cc(-c2ccccc2)nn1-c1ccccc1)c1ccc([N+](=O)[O-])cc1` [VU29], for which the “increase in strength of synaptic connections (hippocampal LTP)” value in assay [3] is “induced a robust increase in synaptic connections”.

For the compound `COc1ccc(C2(O)CCN(C(=O)c3ccc(C#Cc4ccccc4)cc3)CC2)cc1` [drawing 173, (4-hydroxy-4-(4-methoxyphenyl)piperidin-1-yl)(4-(phenylethynyl)phenyl)methanone], the EC50 in assay [5] (setting [6]) came out at 2630 nM.

Take `O=C(c1ccc(C#Cc2ccccc2)cc1)N1CCOCC1` [morpholino(4-(phenylethynyl)phenyl)methanone]: the EC50 in assay [5] (setting [6]) amounted to 5.28 nM.

Regarding “(4-hydroxypiperidin-1-yl)(4-(phenylethynyl)phenyl)methanone [Compound VU13]”, the EC50 in assay [5] (setting [6]) amounted to 28.3 nM. Further, the results for the “reversal of amphetamine-induced hyperlocomotion” value in assay [4] (listed as VU000013) and in assay [4] (listed as VU00013) were “affords similar results” and “reversal of amphetamine-induced hyperlocomotion”, respectively.
